# Patent US20230096766A1, “AMINO ACID HAVING FUNCTIONAL GROUP CAPABLE OF INTERMOLECULAR HYDROGEN BONDING, PEPTIDE COMPOUND CONTAINING SAME AND METHOD FOR PRODUCTION THEREOF” (Chugai Seiyaku Kabushiki Kaisha, priority 2018, published 2023)
# *1 amine or outer side, *2 acyl side, *3 side chain or, on linkers, in order; H or OH if unused. Where a SMILES comes first, the peptide text is derived from it. Bridges are numbered along the chain shown (N, C = ends). [ ]: non-standard residue; d: D form. The star is where a group is joined. ξ: configuration not given here. dhPhe(4-CONHMe,3-OMe) = CNC(=O)c1ccc(CC[C@@H](N)C(=O)O)cc1OC; hPhe(3-OMe,4-CONHMe) = CNC(=O)c1ccc(CC[C@H](N)C(=O)O)cc1OC; X11 = CNC(=O)c1ccc(CCN(CC(=O)[*:2])[*:1])cc1OC; NMeF = CN[C@@H](Cc1ccccc1)C(=O)O; NMeGABA = CN(CCCC(=O)[*:2])[*:1]; ξThr(3R) = C[C@@H](O)C(N)C(=O)O; NMeL = CN[C@@H](CC(C)C)C(=O)O; NMeV = CN[C@H](C(=O)O)C(C)C; NMeAbu = CC[C@H](NC)C(=O)O; NMeA = CN[C@@H](C)C(=O)O; Piperidide = C1CCN(*)CC1; NBuGly = CCCCNCC(=O)O; Sar = CNCC(=O)O; tBu = CC(C)(C)*
# Assay: in vitro
# Conditions: human, Caco-2, Caco-2 (cm/sec)
row,Structure (SMILES),Papp [×10⁻⁶ cm/s]
1,"CC[C@H]1C(=O)N[C@@H](CCc2ccc(C(=O)NC)c(OC)c2)C(=O)N(C)[C@@H](CC(C)C)C(=O)N(C)[C@@H](CC(C)C)C(=O)N[C@@H](C(C)C)C(=O)N(C)[C@@H](Cc2ccccc2)C(=O)N(C)[C@@H](CC(C)C)C(=O)N[C@@H]([C@@H](C)O)C(=O)N(C)CC(=O)N(C)[C@@H](CC(C)C)C(=O)N[C@H](C(=O)N2CCCCC2)CC(=O)N1C [AP205] ([NMeAbu][hPhe(3-OMe,4-CONHMe)][NMeL][NMeL]V[NMeF][NMeL]T[Sar][NMeL]D-Piperidide; lactam N-11)",0.79
2,"CCCCN1CC(=O)N(C)[C@@H](Cc2ccccc2)C(=O)N(C)[C@@H](CC(C)C)C(=O)N[C@@H](CC(C)C)C(=O)N(C)[C@@H](CC(C)C)C(=O)N[C@H](C(=O)N2CCCCC2)CC(=O)N(C)CC(=O)N(C)[C@@H](CC(C)C)C(=O)N[C@@H](CCc2ccc(C(=O)NC)c(OC)c2)C(=O)N(C)[C@@H](CC)C(=O)N[C@@H]([C@@H](C)O)C1=O [AP206] ([Sar][NMeL][hPhe(3-OMe,4-CONHMe)][NMeAbu]T[NBuGly][NMeF][NMeL]L[NMeL]D-Piperidide; lactam N-11)",0.86
3,"CCCCN1CC(=O)N(C)[C@@H](Cc2ccccc2)C(=O)N(C)[C@@H](CC(C)C)C(=O)N[C@@H](CCc2ccc(C(=O)NC)c(OC)c2)C(=O)N(C)[C@@H](CC(C)C)C(=O)N[C@H](C(=O)N2CCCCC2)CC(=O)N(C)CC(=O)N(C)[C@@H](CC(C)C)C(=O)N[C@@H]([C@@H](C)CC)C(=O)N(C)[C@@H](CC(C)C)C(=O)N[C@@H]([C@@H](C)O)C1=O [AP207] ([Sar][NMeL]I[NMeL]T[NBuGly][NMeF][NMeL][hPhe(3-OMe,4-CONHMe)][NMeL]D-Piperidide; lactam N-11)",0.51
4,"CNC(=O)c1ccc(CC[C@H]2NC(=O)[C@H](CC(C)C)N(C)C(=O)CN(C)C(=O)C([C@@H](C)O)NC(=O)[C@H](CC(C)C)N(C)C(=O)[C@H](CC(C)C)NC(=O)[C@H](Cc3ccccc3)N(C)C(=O)[C@@H](C(C)C)NC(=O)C[C@@H](C(=O)N3CCCCC3)NC(=O)[C@H](CC(C)C)N(C)C(=O)[C@H](CC(C)C)N(C)C2=O)cc1OC (stereo partly drawn) [AP208] ([dV][NMeF]L[NMeL][ξThr(3R)][Sar][NMeL][dhPhe(4-CONHMe,3-OMe)][NMeL][NMeL]D-Piperidide; lactam N-11)",0.6
5,"CCCCN1CC(=O)N(C)[C@@H](CC(C)C)C(=O)N[C@@H](COC(C)(C)C)C(=O)N(C)[C@@H](CC(C)C)C(=O)N(C)[C@@H](CC)C(=O)N[C@H](C(=O)N2CCCCC2)CC(=O)N[C@H](CC(C)C)C(=O)N(C)[C@@H](Cc2ccccc2)C(=O)N[C@H](CCc2ccc(C(=O)NC)c(OC)c2)C(=O)N(C)[C@@H](CC(C)C)C(=O)N[C@@H]([C@@H](C)O)C1=O [AP209] ([dL][NMeF][dhPhe(4-CONHMe,3-OMe)][NMeL]T[NBuGly][NMeL]S(tBu)[NMeL][NMeAbu]D-Piperidide; lactam N-11)",0.56
6,"CC[C@H](C)[C@@H]1NC(=O)[C@H](CC(C)C)N(C)C(=O)CCCN(C)C(=O)C[C@@H](C(=O)N2CCCCC2)NC(=O)[C@H](CC(C)C)N(C)C(=O)[C@H](CC(C)C)N(C)C(=O)[C@H]([C@@H](C)O)NC(=O)[C@H](CC(C)C)N(C)C(=O)[C@@H](CCc2ccc(C(=O)NC)c(OC)c2)NC(=O)[C@H](CC(C)C)N(C)C(=O)[C@H](Cc2ccccc2)N(C)C1=O [AP210] ([NMeGABA][NMeL]I[NMeF][NMeL][dhPhe(4-CONHMe,3-OMe)][NMeL]T[NMeL][NMeL]D-Piperidide; lactam N-11)",0.34
7,"CNC(=O)c1ccc(CC[C@H]2NC(=O)[C@H](CC(C)C)N(C)C(=O)CCCN(C)C(=O)C[C@@H](C(=O)N3CCCCC3)NC(=O)[C@H](CC(C)C)N(C)C(=O)[C@H](CC(C)C)N(C)C(=O)[C@H]([C@@H](C)O)NC(=O)[C@H](CC(C)C)N(C)C(=O)[C@H](COC(C)(C)C)NC(=O)[C@H](Cc3ccccc3)N(C)C(=O)[C@H](CC(C)C)N(C)C2=O)cc1OC [AP211] ([NMeGABA][NMeL][dhPhe(4-CONHMe,3-OMe)][NMeL][NMeF]S(tBu)[NMeL]T[NMeL][NMeL]D-Piperidide; lactam N-11)",0.36
8,"CC[C@H]1C(=O)N[C@@H](CC(C)C)C(=O)N(C)[C@@H](CC(C)C)C(=O)N(C)[C@@H](Cc2ccccc2)C(=O)N[C@H](CCc2ccc(C(=O)NC)c(OC)c2)C(=O)N(C)[C@@H](CC(C)C)C(=O)N(C)[C@@H](CC(C)C)C(=O)N[C@@H]([C@@H](C)O)C(=O)N(C)CC(=O)N(C)[C@@H](CC(C)C)C(=O)N[C@H](C(=O)N2CCCCC2)CC(=O)N1C [AP212] ([NMeAbu]L[NMeL][NMeF][dhPhe(4-CONHMe,3-OMe)][NMeL][NMeL]T[Sar][NMeL]D-Piperidide; lactam N-11)",0.64
9,"CC[C@H]1C(=O)N[C@H](CCc2ccc(C(=O)NC)c(OC)c2)C(=O)N(C)[C@@H](CC(C)C)C(=O)N(C)[C@@H](CC(C)C)C(=O)N[C@@H](C(C)C)C(=O)N(C)[C@@H](Cc2ccccc2)C(=O)N(C)[C@@H](CC(C)C)C(=O)N[C@@H]([C@@H](C)O)C(=O)N(C)CC(=O)N(C)[C@@H](CC(C)C)C(=O)N[C@H](C(=O)N2CCCCC2)CC(=O)N1C [AP213] ([NMeAbu][dhPhe(4-CONHMe,3-OMe)][NMeL][NMeL]V[NMeF][NMeL]T[Sar][NMeL]D-Piperidide; lactam N-11)",0.34
10,"CCCCN1CC(=O)N(C)[C@@H](Cc2ccccc2)C(=O)N(C)[C@@H](CC(C)C)C(=O)N[C@@H](CC(C)C)C(=O)N(C)[C@@H](CC(C)C)C(=O)N[C@H](C(=O)N2CCCCC2)CC(=O)N(C)CC(=O)N(C)[C@@H](CC(C)C)C(=O)N[C@H](CCc2ccc(C(=O)NC)c(OC)c2)C(=O)N(C)[C@@H](CC)C(=O)N[C@@H]([C@@H](C)O)C1=O [AP214] ([Sar][NMeL][dhPhe(4-CONHMe,3-OMe)][NMeAbu]T[NBuGly][NMeF][NMeL]L[NMeL]D-Piperidide; lactam N-11)",0.84
11,"CCCCN1CC(=O)N(C)[C@@H](Cc2ccccc2)C(=O)N(C)[C@@H](CC(C)C)C(=O)N[C@H](CCc2ccc(C(=O)NC)c(OC)c2)C(=O)N(C)[C@@H](CC(C)C)C(=O)N[C@H](C(=O)N2CCCCC2)CC(=O)N(C)CC(=O)N(C)[C@@H](CC(C)C)C(=O)N[C@@H]([C@@H](C)CC)C(=O)N(C)[C@@H](CC(C)C)C(=O)N[C@@H]([C@@H](C)O)C1=O [AP215] ([Sar][NMeL]I[NMeL]T[NBuGly][NMeF][NMeL][dhPhe(4-CONHMe,3-OMe)][NMeL]D-Piperidide; lactam N-11)",0.43
12,CC[C@H]1C(=O)N[C@@H]([C@@H](C)O)C(=O)N(CCc2ccc(C(=O)NC)c(OC)c2)CC(=O)N(C)[C@@H](CC(C)C)C(=O)N[C@@H](COC(C)(C)C)C(=O)N(C)[C@@H](CC(C)C)C(=O)N(C)[C@@H](CC(C)C)C(=O)N[C@H](C(=O)N2CCCCC2)CC(=O)N[C@H](C)C(=O)N(C)[C@@H](Cc2ccccc2)C(=O)N[C@@H](CC(C)C)C(=O)N1C [AP216] ([dA][NMeF]L[NMeAbu]T[X11][NMeL]S(tBu)[NMeL][NMeL]D-Piperidide; lactam N-11),0.99
13,CC[C@H]1C(=O)N(C)[C@@H](Cc2ccccc2)C(=O)N[C@@H](C)C(=O)N(C)[C@@H](CC(C)C)C(=O)N(C)[C@@H](CC(C)C)C(=O)N[C@@H]([C@@H](C)O)C(=O)N(CCc2ccc(C(=O)NC)c(OC)c2)CC(=O)N(C)[C@@H](CC(C)C)C(=O)N[C@H](C(=O)N2CCCCC2)CC(=O)N(C)[C@@H](C(C)C)C(=O)N[C@@H](CC(C)C)C(=O)N1C [AP217] ([NMeV]L[NMeAbu][NMeF]A[NMeL][NMeL]T[X11][NMeL]D-Piperidide; lactam N-11),1
14,CC[C@H](C)[C@@H]1NC(=O)[C@H](CC(C)C)N(C)C(=O)CN(C)C(=O)C[C@@H](C(=O)N2CCCCC2)NC(=O)[C@H](CC(C)C)N(C)C(=O)[C@H](COC(C)(C)C)NC(=O)[C@H](CC(C)C)N(C)C(=O)[C@H](Cc2ccccc2)N(C)C(=O)CN(CCc2ccc(C(=O)NC)c(OC)c2)C(=O)[C@H]([C@@H](C)O)NC(=O)[C@H](CC)N(C)C1=O [AP218] ([Sar][NMeL]I[NMeAbu]T[X11][NMeF][NMeL]S(tBu)[NMeL]D-Piperidide; lactam N-11),0.55
15,CC[C@H]1C(=O)N[C@@H]([C@@H](C)O)C(=O)N(C)CC(=O)N(C)[C@@H](Cc2ccccc2)C(=O)N(C)[C@@H](CC(C)C)C(=O)N[C@@H](COC(C)(C)C)C(=O)N(C)[C@@H](CC(C)C)C(=O)N[C@H](C(=O)N2CCCCC2)CC(=O)N(CCc2ccc(C(=O)NC)c(OC)c2)CC(=O)N(C)[C@@H](CC(C)C)C(=O)N[C@@H](CC(C)C)C(=O)N1C [AP219] ([X11][NMeL]L[NMeAbu]T[Sar][NMeF][NMeL]S(tBu)[NMeL]D-Piperidide; lactam N-11),1.3
16,CCCCN1CC(=O)N(C)[C@@H](C)C(=O)N[C@@H](COC(C)(C)C)C(=O)N(C)[C@@H](CC(C)C)C(=O)N(CCc2ccc(C(=O)NC)c(OC)c2)CC(=O)N[C@H](C(=O)N2CCCCC2)CC(=O)N[C@H](CC(C)C)C(=O)N(C)[C@@H](Cc2ccccc2)C(=O)N[C@@H](CC(C)C)C(=O)N(C)[C@@H](CC(C)C)C(=O)N[C@@H]([C@@H](C)O)C1=O [AP220] ([dL][NMeF]L[NMeL]T[NBuGly][NMeA]S(tBu)[NMeL][X11]D-Piperidide; lactam N-11),0.8
17,CC[C@H](C)[C@@H]1NC(=O)[C@H](CC(C)C)N(C)C(=O)[C@@H](CC(C)C)NC(=O)C[C@@H](C(=O)N2CCCCC2)NC(=O)[C@H](CC(C)C)N(C)C(=O)[C@H](Cc2ccccc2)N(C)C(=O)[C@H](COC(C)(C)C)NC(=O)CN(CCc2ccc(C(=O)NC)c(OC)c2)C(=O)CN(C)C(=O)[C@H]([C@@H](C)O)NC(=O)[C@H](CC(C)C)N(C)C1=O [AP221] ([dL][NMeL]I[NMeL]T[Sar][X11]S(tBu)[NMeF][NMeL]D-Piperidide; lactam N-11),0.28
18,CC[C@H](C)[C@@H]1NC(=O)[C@H](CC(C)C)N(C)C(=O)[C@@H](C)NC(=O)C[C@@H](C(=O)N2CCCCC2)NC(=O)[C@H](CC(C)C)N(C)C(=O)[C@H](Cc2ccccc2)N(C)C(=O)[C@H](COC(C)(C)C)NC(=O)[C@H](CC(C)C)N(C)C(=O)[C@H](CC)N(C)C(=O)[C@H]([C@@H](C)O)NC(=O)CN(CCc2ccc(C(=O)NC)c(OC)c2)C1=O [AP222] ([dA][NMeL]I[X11]T[NMeAbu][NMeL]S(tBu)[NMeF][NMeL]D-Piperidide; lactam N-11),0.31
